Holding throughout (assay type): physicochemical
Data set [1] is described as follows: Particle size distribution by laser particle size analyzer Mastersizer 3000. Conditions: dispersed in n-heptane. On the procedure:
The particle size distribution of the APIs prepared in the examples of the present disclosure was determined by using a laser particle size analyzer Mastersizer 3000 (Malvern Panalytical, UK). Specifically, about 20 mg of the API (for example, API 5) prepared in the example of the present disclosure was taken, dispersed in 8 mL of n-heptane, sonicated for 10 seconds, added to a sample dispersion unit until the shading degree was in the range from 10% to 20%, and then measured. The stirring speed of the dispersion chamber was 2000 rpm, and the duration was 10 s.

A short description of data set [2]: Dynamic vapor sorption (DVS) analysis. On the procedure:
Dynamic vapor sorption analysis was performed using DVS Intrinsic (SMS, UK). The analysis adopted a gradient mode, the humidity change was 50%, 95%, 0%, and 50% in sequence, the humidity change of each gradient in the range from 0% to 90% was 10%, and the end point of the gradient was determined by dm/dt method. The end point of the gradient was determined in response to the dm/dt being less than 0.002% and maintained for 10 minutes.

Data set [3] is described as follows: Thermogravimetric analysis (TGA). Conditions: 10° C./min. On the procedure:
A thermogravimetric analyzer TA Discovery 55 (TA, US) was used. 2 mg to 5 mg of the sample was placed in an equilibrated open aluminum sample pan and automatically weighed in a TGA oven. The sample was heated to the final temperature at a rate of 10° C./min with a nitrogen purge rate of 60 mL/min at the sample and 40 mL/min at the balance.

Data set [4] can be described thus: Stability of crystal form A, influencing factor and accelerated stability experiments. An excerpt: In addition, the inventors also investigated the stability of the crystal form A under conditions of the influencing factor experiment and the accelerated stability experiment, and the results is as follows: […]

The structures appear in SMILES notation.

As for `Cn1cnc(Cn2c(=O)[nH]/c(=N\c3cc4cn(C)nc4cc3Cl)n(Cc3cc(F)c(F)cc3F)c2=O)n1` [API 1], in data set [1], the “Particle size D50 of API” value is listed as 28.9 μm and the “Particle size D90 of API” value is on record as 58.6 μm.

As for `Cn1cnc(Cn2c(=O)[nH]/c(=N\c3cc4cn(C)nc4cc3Cl)n(Cc3cc(F)c(F)cc3F)c2=O)n1` [API 2], in data set [1], the “Particle size D50 of API” value was 20.3 μm and the “Particle size D90 of API” value was determined as 40.1 μm.

On to `Cn1cnc(Cn2c(=O)[nH]/c(=N\c3cc4cn(C)nc4cc3Cl)n(Cc3cc(F)c(F)cc3F)c2=O)n1` [API 3], for which, in data set [1], the “Particle size D50 of API” value amounted to 8.4 μm and the “Particle size D90 of API” value amounted to 10.2 μm.

In the case of `Cn1cnc(Cn2c(=O)[nH]/c(=N\c3cc4cn(C)nc4cc3Cl)n(Cc3cc(F)c(F)cc3F)c2=O)n1` [API 4], in data set [1], the “Particle size D50 of API” value came to 23.5 μm and the “Particle size D90 of API” value is 46.7 μm.

Turning to `Cn1cnc(Cn2c(=O)[nH]/c(=N\c3cc4cn(C)nc4cc3Cl)n(Cc3cc(F)c(F)cc3F)c2=O)n1` [API 5], in data set [1], the “Particle size D50 of API” value was determined as 18.6 μm and the “Particle size D90 of API” value was found to be 34.2 μm.

Consider `Cn1cnc(Cn2c(=O)[nH]/c(=N\c3cc4cn(C)nc4cc3Cl)n(Cc3cc(F)c(F)cc3F)c2=O)n1` [API 6], for which, in data set [1], the “Particle size D50 of API” value came out at 8.9 μm and the “Particle size D90 of API” value is on record as 15.6 μm.

On to `Cn1cnc(Cn2c(=O)[nH]/c(=N\c3cc4cn(C)nc4cc3Cl)n(Cc3cc(F)c(F)cc3F)c2=O)n1` [API 7], for which, in data set [1], the “Particle size D50 of API” value turned out to be 22.3 μm and the “Particle size D90 of API” value was 45.5 μm.

Consider `Cn1cnc(Cn2c(=O)[nH]/c(=N\c3cc4cn(C)nc4cc3Cl)n(Cc3cc(F)c(F)cc3F)c2=O)n1` [API 8], for which, in data set [1], the “Particle size D50 of API” value turned out to be 20.1 μm and the “Particle size D90 of API” value amounted to 40.7 μm.

Consider `Cn1cnc(Cn2c(=O)[nH]/c(=N\c3cc4cn(C)nc4cc3Cl)n(Cc3cc(F)c(F)cc3F)c2=O)n1` [API 9], for which, in data set [1], the “Particle size D50 of API” value was determined as 8.8 μm and the “Particle size D90 of API” value is recorded as 10.4 μm.

Regarding `Cn1cnc(Cn2c(=O)[nH]/c(=N\c3cc4cn(C)nc4cc3Cl)n(Cc3cc(F)c(F)cc3F)c2=O)n1` [API 10], in data set [1], the “Particle size D50 of API” value worked out at 22.1 μm and the “Particle size D90 of API” value is recorded as 43.4 μm.

For the compound `Cn1cnc(Cn2c(=O)[nH]/c(=N\c3cc4cn(C)nc4cc3Cl)n(Cc3cc(F)c(F)cc3F)c2=O)n1` [API 11], in data set [1], the “Particle size D50 of API” value is on record as 20.6 μm and the “Particle size D90 of API” value stood at 42.7 μm.

For `Cn1cnc(Cn2c(=O)[nH]/c(=N\c3cc4cn(C)nc4cc3Cl)n(Cc3cc(F)c(F)cc3F)c2=O)n1` [API 12], in data set [1], the “Particle size D50 of API” value is 8.3 μm and the “Particle size D90 of API” value is listed as 10.9 μm.

For `Cn1cnc(Cn2c(=O)[nH]/c(=N\c3cc4cn(C)nc4cc3Cl)n(Cc3cc(F)c(F)cc3F)c2=O)n1` [API 13], in data set [1], the “Particle size D50 of API” value came out at 22.4 μm and the “Particle size D90 of API” value is reported as 48.9 μm.

For the compound `Cn1cnc(Cn2c(=O)[nH]/c(=N\c3cc4cn(C)nc4cc3Cl)n(Cc3cc(F)c(F)cc3F)c2=O)n1` [API 14], in data set [1], the “Particle size D50 of API” value stood at 20.5 μm and the “Particle size D90 of API” value is 41.3 μm.

For the compound `Cn1cnc(Cn2c(=O)[nH]/c(=N\c3cc4cn(C)nc4cc3Cl)n(Cc3cc(F)c(F)cc3F)c2=O)n1` [API 15], in data set [1], the “Particle size D50 of API” value is on record as 10.2 μm and the “Particle size D90 of API” value worked out at 15.8 μm.

For the compound `Cn1cnc(Cn2c(=O)[nH]/c(=N\c3cc4cn(C)nc4cc3Cl)n(Cc3cc(F)c(F)cc3F)c2=O)n1` [API 16], in data set [1], the “Particle size D50 of API” value is listed as 38.3 μm and the “Particle size D90 of API” value is listed as 70.5 μm.

For the compound `Cn1cnc(Cn2c(=O)[nH]/c(=N\c3cc4cn(C)nc4cc3Cl)n(Cc3cc(F)c(F)cc3F)c2=O)n1` [API 17], in data set [1], the “Particle size D50 of API” value is listed as 35.4 μm and the “Particle size D90 of API” value is listed as 65.7 μm.

As to `Cn1cnc(Cn2c(=O)[nH]/c(=N\c3cc4cn(C)nc4cc3Cl)n(Cc3cc(F)c(F)cc3F)c2=O)n1` [crystal form A, (6E)-6-[(6-chloro-2-methyl-2H-indazol-5-yl)imino]-3-[(1-methyl-1H-1,2,4-triazol-3-yl)methyl]-1-(2,4,5-trifluorobenzyl)-1,3,5-triazine-2,4-dione fumaric acid], the “Hygroscopicity” value in data set [2] (DVS) is on record as “almost no hygroscopicity”. In addition, in data set [2] (FIG. 3), the “Crystal form stability, XRPD before and after DVS experiment” value was “very stable, is not prone to crystalline transformation”. The compound also came in with a DVS weight loss in data set [2] (at 0% RH) of 0.02%. The same compound displayed a DVS weight gain in data set [2] (at 80% RH) of 0.06%. Further, in data set [3] (nitrogen), the TGA decomposition temperature entry is “higher than 240 °C”. For the same compound, in data set [3] (heated to 150° C.), the TGA weight loss result is “basically no weight loss”. Besides, the “Stability (appearance, purity, dissociation, crystalline transformation)” value in data set [4] (40° C. and 75% relative humidity (RH), within 2 months) is “stable”. Further, the “Stability (appearance and purity)” value in data set [4] (high temperature, high humidity, and light irradiation, within 30 days) was “stable”.

Values taken from patent US11655240B1, “Crystal form of compound and fumaric acid, pharmaceutical composition and method for treating coronavirus-induced diseases” (priority 2022, dated 2023).
